Results published in patent US4644006A, “Substituted 3,4-diamino-1,2,5-thiadiazoles having histamine H2 -receptor antagonist activity” (Bristol-Myers Company, priority 1984, dated 1987).
Like-named read-outs stand apart in the source and are kept apart here.

Experiments:
[1] = tested on: gastric acid secretion (Heidenhain pouch dog); assay: Gastric antisecretory activity in the histamine-stimulated Heidenhain pouch dog; type: in vivo; details: for ED50: Canis lupus familiaris, 0.5 h, read-out: ED50 i.v.
Method: Prior to surgery, hematology and blood chemistry profiles are obtained and an assessment made as to the general health of selected female dogs. Dogs are vaccinated with Tissue Vax 5 (DHLP-Pitman-Moore) and housed in general animal quarters for four weeks' observation so incipient diseases may become apparent. Dogs are fasted with water ad libitum 24 hours prior to surgery.
Anesthesia is induced with Sodium Pentothal (Abbott) 25-30 mg/kg iv. Subsequent anesthesia is maintained with methoxyflurane (Pitman-Moore). A mid-line linea alba incision from xiphoid to umbilicus provides good exposure and ease of closure. The stomach is pulled up into the operative field, the greater curvature stretched out at multiple points and clamps placed along the selected line of incision. The pouch is made from the corpus of the stomach so that true parietal cell juice is obtained. About 30% of the corpus volume is resected. The cannula is made of light-weight,biologically-inert material such as nylon, Delrin or surgical stainless steel with dimensions and attachments after DeVito and Harkins [J. Appl. Physiol., 14, 138 (1959)]. Post-operatively, dogs are medicated with antibiotics and an analgesic. They are allowed 2-3 months for recovery. Experiments are carried out in the following way: Dogs are fasted overnight (18 hours) with water ad libitum prior to each experiment. The dogs are placed in a sling and a saphenous vein cannulated for drug administration. Histamine as the base (100 μg/kg/hr) and chlorpheniramine maleate (0.25 mg/kg/hr) are infused continuously (in a volume of 6 ml/hr) with a Harvard infusion pump.
Ninety minutes' infusion are allowed for the dogs to reach a steady state of acid output. At this time the drug or normal saline (control) is administered concomitantly with the secretagogue in a volume of 0.5 ml/kg over a 30 second period. Infusion of the secretagogue is continued and 15 minute samples of the gastic juice are taken for 4.5 hours. Each sample is measured to the nearest 0.5 ml and tritratable acidity is determined by titrating a 1 ml sample to pH 7.0 with a 0.2N NaOH, employing a fully automatic titration system (Metrohm). Titratable acid output is calculated in microequivalents by multiplying the volume is milliliters by the acid concentration in microequivalents per milliliter.
Results at peak activity after bolus intravenous administration of test compound are expressed as percent inhibition relative to control readings. Dose-response curves were constructed utilizing at least three dose levels with a minimum of three dogs at each dose level. […]

[2] = molecular target: T1, histamine H2-receptors (isolated guinea pig right atria) (Cavia porcellus, UniProt P47747); assay: Histamine H2-receptor antagonism, isolated guinea pig right atria assay; design: estimated dissociation constant KB: unit not given here; details: for effect on histamine or dimaprit dose-response curves: at the concentrations utilized, 30-minute incubation
T1 construct: The spontaneously beating right atrium was dissected free from other tissues; from tissue; host or cells: isolated spontaneously beating right atrium of male Hartley guinea pigs
T1 sequence (P47747 whole entry): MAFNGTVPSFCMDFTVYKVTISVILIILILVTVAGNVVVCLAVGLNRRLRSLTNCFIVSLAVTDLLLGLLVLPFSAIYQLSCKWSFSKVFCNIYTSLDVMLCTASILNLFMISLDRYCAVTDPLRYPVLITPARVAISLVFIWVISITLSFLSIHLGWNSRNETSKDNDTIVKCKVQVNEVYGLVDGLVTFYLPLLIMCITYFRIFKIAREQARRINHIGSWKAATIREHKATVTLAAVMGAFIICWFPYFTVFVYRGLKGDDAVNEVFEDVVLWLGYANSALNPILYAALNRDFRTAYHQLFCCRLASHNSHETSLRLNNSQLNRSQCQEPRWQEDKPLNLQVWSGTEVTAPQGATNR
Method: Subsequent investigations by Hughes and Coret, Proc. Soc. […] Black et al., Agents and Actions, 3, 133 (1973) and Brimblecombe et al., Fed. […] The present comparative studies were carried out using a modification of the procedure reported by Reinhardt et al., Agents and Actions, 4, 217 (1974).
The spontaneously beating right atrium was dissected free from other tissues and a silk thread (4-0) attached to each end.

[3] = tested on: histamine H2-receptors; details: Black et al., Nature, 236, 385 (1972); cited from earlier work
[4] = tested on: peptic ulcer disease; details: Gray et al., Lancet, 1, 8001 (1977); cited from earlier work

estimated dissociation constant KB ([2]; estimated by method of Furchgott, KB = concentration of antagonist/dose ratio-1, ± S.E., N = 5 preparations) | Potency Ratio (cimetidine = 1.0) ([2]; from KB, isolated guinea pig right atria, cimetidine = 1.0) | SMILES | ED50 ([1]; intravenous dose giving 50% inhibition at time of peak activity, i.e. 30 minutes post dose, parentheses: 95% confidence limits, histamine 100 μg/kg/hr) [µmol/kg] | Potency Ratio (cimetidine = 1.0) ([1]; i.v., Heidenhain pouch dog, cimetidine = 1.0, Probit analysis) | duration of action of antisecretory activity ([1]; intravenous dog model, relative to cimetidine) | effect on histamine or dimaprit dose-response curves [2] | type of antagonism at histamine H2-receptors [3] | ED50 ([1]; iv) [µmol/kg] | clinical effectiveness in peptic ulcer disease [4]
0.0094 ± 0.0018 | 44 | N=C(N)Nc1nc(CSCCNc2nsnc2N)cs1 [Example 1, 3-Amino-4-{2-[(2-guanidinothiazol-4-yl)methylthio]ethylamino}-1,2,5-thiadiazole] | 0.082 | 32 | prolonged duration of action relative to cimetidine | Parallel shifts in dose-response curves were obtained without depressing the maximal response | – | – | –
– | – | CNC(=S)NCCCCc1cnc[nH]1 [burimamide] | – | – | – | – | competitive antogonist | – | –
– | – | CN/C(=N/CCSCc1nc[nH]c1C)NC#N [cimetidine, reference compound] | – | – | – | Parallel shifts in dose-response curves were obtained without depressing the maximal response | – | 2.6 | effective therapeutic agent in the treatment of peptic ulcer disease
